Consider one molecule from patent publication US10351559B2, “Maleate salts of a B-RAF kinase inhibitor, crystalline forms, methods of preparation, and uses therefore” (BeiGene, Ltd., priority 2015, dated 2019).

Where a name gives a salt, the structure may show the parent alone.

For series [1], the system named is human Calu-6 lung adenocarcinoma (K-RAS mutation) tumors. In words: xenograft efficacy study, combination. As to conditions: Calu-6 tumors. Format: in vivo, BALB/C nude mice. The method, then:
(§1) Human cancer cells were inoculated subcutaneously in the right axilla region of BALB/C nude mice to generate tumor xenografts. On the day of implantation, the cell culture medium was replaced with fresh medium. Three hours later, the media was removed and the cells were collected and re-suspended in cold (4° C.) PBS prior to inoculation. The right axilla region of each mouse was cleaned with 70% ethanol prior to cell inoculation. Each animal was injected subcutaneously with desired cells in 200 μl of cell suspension in the right front flank via a 26-gauge needle. After implantation tumor volumes were measured twice weekly in two dimensions using a calliper. Tumor volume was calculated using the formula: V=0.5×(a×b^2) where a and b are the long and short diameters of the tumor, respectively.
For in vivo efficacy studies, when the average tumor size reaches 100˜200 mm^3, animals were assigned into desired number of groups with 6-10 mice per group using a stratified randomization procedure. […] Body weight was assessed immediately before dosing and the volume dosed was adjusted accordingly. Individual body weights and tumor volumes were determined twice weekly, with mice being monitored daily for clinical signs of toxicity for the duration of the study. […] All group data was analyzed using the t test. […]
Tumor growth inhibition (TGI) was calculated using the following formula: […]

The next series addresses T1, WT-EGFR (Homo sapiens, UniProt P00533).
T1 construct: purchased Carna Biosciences
In words: HTRF KinEASE-TK kinase assay. The class given is biochemical. The procedure:
(§2) Crystalline Form A* of Compound 1 Sesqui-Maleate was tested against recombinant EGFR/EPHA2/BTK (from Carna Biosciences), ITK/TEC/SRC/PDGFR-beta/TXK/FLT3/VEGFR2/RET (from Life Technologies), and HER2 (aa676-1255, recombinant protein purified from insect expression system) in HTRF KinEASE-TK assay from Cisbio Bioassays according to the manufacturer's instructions. The assay was carried out in a reaction mixture containing kinases, ATP at KM concentration, biotinylated peptide substrate (61TK0BLC, Cisbio Bioassays) and Crystalline Form A* of Compound 1 Sesqui-Maleate. […] After reaction, stop/detection solution was added according to the manufacture's instruction. The stop/detection solution contained Eu+ cryptate conjugated antiphosphotyrosine antibody (61T66kLB, CisBio Bioassays) and Streptavidin-XL665 (610SAXLB, CisBio Bioassays) in buffer containing 25 mM Tris pH7.4, 400 mM KF, 50 mM EDTA, 0.01% BSA, 0.01% Triton X-100. The TR-FRET signals (ratio of fluorescence emission at 665 nm over emission at 620 nm with excitation at 337 nm wavelength) were recorded on a PHERAstar FS plate reader (BMG Labtech) after 1 hr incubation. Phosphorylation of biotinylated peptide substrate led to the binding of both Eu+ cryptate conjugated antiphosphotyrosine antibody and streptaviding-XL665 to the biotinylated peptide. The close proximity of the donor (Eu+ cryptate) and acceptor (XL665) fluorophore led to a high degree of fluorescence resonance energy transfer from the donor fluorophore (at 620 nm) to the acceptor fluorophore (at 665 nm). The IC50 for Crystalline Form A* of Compound 1 Sesqui-Maleate was derived from fitting the dose-response % inhibition data to the four-parameter logistic model by Graphpad Prism software.

The target in another series is T2, VEGFR2 (Homo sapiens, UniProt P35968).
T2 construct: purchased Life Technologies
T2 sequence (P35968 20-1356): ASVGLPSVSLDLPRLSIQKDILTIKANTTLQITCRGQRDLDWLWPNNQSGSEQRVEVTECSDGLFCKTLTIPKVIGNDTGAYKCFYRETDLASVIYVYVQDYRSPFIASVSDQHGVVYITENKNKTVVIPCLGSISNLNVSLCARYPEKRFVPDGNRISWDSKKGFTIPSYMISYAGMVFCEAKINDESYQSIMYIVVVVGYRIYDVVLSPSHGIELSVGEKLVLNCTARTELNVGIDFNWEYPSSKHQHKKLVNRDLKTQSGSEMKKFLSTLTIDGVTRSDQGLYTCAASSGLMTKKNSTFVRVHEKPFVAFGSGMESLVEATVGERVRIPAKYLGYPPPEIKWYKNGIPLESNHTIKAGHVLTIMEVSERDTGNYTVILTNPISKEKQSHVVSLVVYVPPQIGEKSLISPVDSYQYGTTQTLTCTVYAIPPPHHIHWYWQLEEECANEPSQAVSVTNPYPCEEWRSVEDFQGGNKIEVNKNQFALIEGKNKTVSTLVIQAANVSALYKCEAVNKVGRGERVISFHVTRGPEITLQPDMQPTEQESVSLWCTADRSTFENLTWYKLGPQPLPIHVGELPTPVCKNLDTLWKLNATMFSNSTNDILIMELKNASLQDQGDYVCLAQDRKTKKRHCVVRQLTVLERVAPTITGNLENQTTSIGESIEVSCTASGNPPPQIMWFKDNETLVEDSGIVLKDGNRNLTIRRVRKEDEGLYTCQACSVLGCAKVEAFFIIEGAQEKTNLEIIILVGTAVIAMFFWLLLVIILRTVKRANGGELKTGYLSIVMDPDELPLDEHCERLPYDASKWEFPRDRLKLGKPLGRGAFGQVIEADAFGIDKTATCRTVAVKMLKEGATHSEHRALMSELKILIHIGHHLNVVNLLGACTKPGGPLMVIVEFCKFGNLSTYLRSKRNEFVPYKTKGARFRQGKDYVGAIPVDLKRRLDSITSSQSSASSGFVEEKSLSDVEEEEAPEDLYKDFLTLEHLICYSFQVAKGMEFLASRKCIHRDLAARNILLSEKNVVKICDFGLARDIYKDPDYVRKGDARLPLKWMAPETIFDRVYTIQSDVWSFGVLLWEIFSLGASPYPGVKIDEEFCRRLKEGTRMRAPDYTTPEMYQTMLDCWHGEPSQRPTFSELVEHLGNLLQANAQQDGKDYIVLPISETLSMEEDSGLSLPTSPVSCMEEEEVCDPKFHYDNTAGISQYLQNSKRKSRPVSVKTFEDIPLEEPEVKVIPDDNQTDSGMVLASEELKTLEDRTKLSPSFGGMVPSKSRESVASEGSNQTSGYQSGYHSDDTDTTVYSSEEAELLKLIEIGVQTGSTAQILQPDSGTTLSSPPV
In words: HTRF KinEASE-TK kinase assay. Format: biochemical. The procedure:
as §2
A general note: Time-resolved FRET reads energy transfer from a long-lived donor to a nearby acceptor.

In the next series the target is T3, HER2 (aa676-1255) (Homo sapiens, UniProt P04626).
T3 construct: HER2 (aa676-1255, recombinant protein purified from insect expression system); made in house; host or cells: insect expression system
T3 sequence (P04626 676-1255): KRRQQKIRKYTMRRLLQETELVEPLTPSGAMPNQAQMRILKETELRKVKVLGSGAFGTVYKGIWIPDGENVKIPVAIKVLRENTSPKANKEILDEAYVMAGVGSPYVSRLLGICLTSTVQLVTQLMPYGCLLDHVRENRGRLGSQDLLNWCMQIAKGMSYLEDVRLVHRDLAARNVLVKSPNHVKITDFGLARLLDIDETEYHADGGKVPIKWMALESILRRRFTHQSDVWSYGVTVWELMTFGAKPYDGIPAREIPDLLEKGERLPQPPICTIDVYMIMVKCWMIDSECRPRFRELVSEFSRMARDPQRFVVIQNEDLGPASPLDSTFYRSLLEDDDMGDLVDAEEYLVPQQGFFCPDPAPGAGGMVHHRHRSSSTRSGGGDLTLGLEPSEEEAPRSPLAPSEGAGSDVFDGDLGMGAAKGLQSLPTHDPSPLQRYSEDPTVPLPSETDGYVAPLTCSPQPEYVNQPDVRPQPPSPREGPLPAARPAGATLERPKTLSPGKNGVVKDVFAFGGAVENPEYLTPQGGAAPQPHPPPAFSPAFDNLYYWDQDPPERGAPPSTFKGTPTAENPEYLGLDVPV
In words: HTRF KinEASE-TK kinase assay. Format: biochemical. The procedure:
as §2

The test system of series [2] is ERK1/2 phosphorylation in A375 xenografts. In words: PD study, p-ERK1/2 in tumor tissue (AlphaScreen SureFire). The class given is in vivo. The settings on record: A375 xenografts in mice, oral administration. The procedure: as §1
For PD study, when the average tumor size reaches 140-900 mm^3, animals were assigned into desired number of groups with 4 mice per group using a stratified randomization procedure. The groups consisted of a control group (no drug treatment), and different dose levels of Crystalline Form A* of Compound 1 Sesqui-Maleate treatment groups (ranged from 1-20 mg/kg). All doses were based on free-base weight. Drugs were administered by oral gavage once (qd) or twice (bid) daily. […] Body weight was assessed immediately before dosing and the volume dosed was adjusted accordingly. […]
In general terms: In Alpha technology, singlet oxygen from a donor bead excites a nearby acceptor bead.

A short description of series [3]: long-term stability study. Format: physicochemical.

T1 sequence (P00533 25-1210): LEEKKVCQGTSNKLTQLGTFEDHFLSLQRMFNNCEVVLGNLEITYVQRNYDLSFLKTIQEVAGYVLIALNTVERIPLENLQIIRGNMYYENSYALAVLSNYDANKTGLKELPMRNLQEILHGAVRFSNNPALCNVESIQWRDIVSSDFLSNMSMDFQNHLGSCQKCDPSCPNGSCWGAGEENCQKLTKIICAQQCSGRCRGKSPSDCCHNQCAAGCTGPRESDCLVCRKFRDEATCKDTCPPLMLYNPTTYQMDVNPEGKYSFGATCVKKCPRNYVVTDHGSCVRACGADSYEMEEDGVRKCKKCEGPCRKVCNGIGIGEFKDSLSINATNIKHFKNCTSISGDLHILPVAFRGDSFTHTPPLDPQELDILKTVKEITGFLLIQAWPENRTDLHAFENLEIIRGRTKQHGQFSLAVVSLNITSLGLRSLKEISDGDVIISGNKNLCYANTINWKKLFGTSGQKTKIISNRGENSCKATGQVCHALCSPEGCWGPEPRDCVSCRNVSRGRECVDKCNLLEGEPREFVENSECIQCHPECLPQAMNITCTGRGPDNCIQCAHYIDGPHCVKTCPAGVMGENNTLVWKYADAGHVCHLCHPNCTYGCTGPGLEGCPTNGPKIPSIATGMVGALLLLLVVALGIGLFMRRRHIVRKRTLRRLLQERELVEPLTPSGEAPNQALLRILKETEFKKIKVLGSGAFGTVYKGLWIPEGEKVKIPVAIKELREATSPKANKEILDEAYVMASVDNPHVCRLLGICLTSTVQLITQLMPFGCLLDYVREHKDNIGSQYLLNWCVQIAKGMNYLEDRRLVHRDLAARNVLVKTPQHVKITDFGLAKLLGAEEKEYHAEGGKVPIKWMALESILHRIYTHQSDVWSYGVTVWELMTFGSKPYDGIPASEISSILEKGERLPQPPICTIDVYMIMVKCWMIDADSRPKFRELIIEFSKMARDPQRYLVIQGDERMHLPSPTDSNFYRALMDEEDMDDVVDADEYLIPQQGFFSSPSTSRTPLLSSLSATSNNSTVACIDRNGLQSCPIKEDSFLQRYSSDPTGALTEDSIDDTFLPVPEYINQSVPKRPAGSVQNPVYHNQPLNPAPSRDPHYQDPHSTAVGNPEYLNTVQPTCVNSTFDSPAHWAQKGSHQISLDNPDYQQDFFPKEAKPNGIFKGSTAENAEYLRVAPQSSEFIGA

Turning to `O=C1CCc2c(Oc3ccc4c(c3)[C@@H]3[C@H](O4)[C@H]3c3nc4ccc(C(F)(F)F)cc4[nH]3)ccnc2N1` [5-(((1R,1aS,6bR)-1-(6-(trifluoromethyl)-1H-benzo[d]imidazol-2-yl)-1a,6b-dihydro-1H-cyclopropa[b]benzofuran-5-yl)oxy)-3,4-dihydro-1,8-naphthyridin-2(1H)-one sesqui-maleate salt], the “antitumor activity in combination” value in series [1] (combined with docetaxel) and in series [1] (combined with the MEK inhibitor selumetinib (AZD6244)) was “remarkable antitumor activity” each time. The “enzyme inhibition” value on WT-EGFR (EGFR) was “potently inhibits”; on VEGFR2, “potently inhibits”; on HER2 (aa676-1255) it was “weak inhibition”. The IC50 against WT-EGFR (WT-EGFR, ATP at KM) was determined as 44 nM; at VEGFR2 (ATP at KM) it was 22 nM; at HER2 (aa676-1255) (ATP at KM), 2570 nM. Further, in series [2], the “inhibition of ERK1/2 phosphorylation in tumor” value was “time-dependent and dose-dependent inhibition”. Further, the “purity after stability study” value in series [3] (24 month at 25 C/75% RH) is given as 98.5%. The “crystal form and optical purity changes” value in series [3] (25° C./60% RH up to 18 months and 40° C./75% RH up to 6 months) is “no crystal form and optical purity changes were observed”. Further, the Assay w/w in series [3] (T0, 25° C./60% RH study) is 99.1%; in series [3] (T0, 40° C./75% RH study), 99.1%; in series [3] (T6: 6 months at 40° C./75% RH), 98.9%; in series [3] (T18: 18 months at 25° C./60% RH), 98.8%.

By IC50 is commonly meant the concentration needed to halve the response being measured. Read a low IC50 as inhibition by little substance.
